Where “and” joins values, the source holds several entries; their conditions need not be identical. Identical values can stand only once. Like-named read-outs stand apart in the source and are kept apart here.
Molecular target: HIV-1LAI envelope gp120 (Human immunodeficiency virus type 1 group M subtype B, UniProt P03377)
Format: binding
Details: for Binding Results For Window Length (counts bound-background), 9 / Binding Results For Window Length (counts bound-background), 12 / Binding Results For Window Length (counts bound-background), 15 / Binding Results For Window Length (counts bound-background), 18: STRL33 amino terminus; for Binding Results For Window Length (counts bound-background), 9: 9-mer starting at the first residue of the printed sequence; for Binding Results For Window Length (counts bound-background), 12: 12-mer starting at the first residue of the printed sequence; for Binding Results For Window Length (counts bound-background), 15: 15-mer starting at the first residue of the printed sequence; for Binding Results For Window Length (counts bound-background), 18: 18-mer starting at the first residue of the printed sequence; for number of radioactive decays (counts) counted: human CD4 21-mer scan, empty control 2075; for Counts per 20′ Average-background: CCR5 18-mer scan, radiolabeled HIV-1LAI gp120
[1] = STRL33 18-mer scan, background subtracted, first of two count columns
[2] = STRL33 18-mer scan, background subtracted, second of two count columns
[3] = Panel D, 9-mers and 12-mers of CD4, empty control […]
[4] = Panel B, 15-mers and 18-mers of CD4, empty control 575
[5] = Panel F, sequential alanine replacements of CD4 polypeptides, duplicate series, empty control 569
[6] = Panel E, 9-mers and 12-mers of CD4, empty control 571
[7] = Panel C, 15-mers and 18-mers of CD4, empty control 556
[8] = Panel A, 21-mers of CD4, empty control 515 and 617
[9] = CXCR4 18-mer scan, background subtracted, empty control 0
[10] = CXCR4 18-mer scan, empty control 412

DSSQEEHQAFLQFSK
Binding Results For Window Length (counts bound-background), 9 (background subtracted): 147 counts | Binding Results For Window Length (counts bound-background), 12 (background subtracted): 882 counts | Binding Results For Window Length (counts bound-background), 15 (background subtracted): 4588 counts

DSSQEEHQAFLQFSKVFL [STRL33 segment 17-34]
radioactive counts recorded in twenty minutes [1]: 869.5 counts | radioactive counts recorded in twenty minutes [2]: 2152.5 counts

DTHLLQGQS
COUNTS of radiolabeled gp120 retained [3]: 578 counts

DTHLLQGQSLTL
COUNTS of radiolabeled gp120 retained [3]: 527 counts

DTHLLQGQSLTLTLE
COUNTS of radiolabeled gp120 retained [4]: 1622 counts

DTYICEVED
COUNTS of radiolabeled gp120 retained [3]: 1043 counts

DTYICEVEDQKE
COUNTS of radiolabeled gp120 retained [3]: 720 counts

DTYICEVEDQKEEVQ
COUNTS of radiolabeled gp120 retained [4]: 1071 counts

DTYICEVEDQKEEVQLLV
COUNTS of radiolabeled gp120 retained [4]: 1648 counts

DYGFSSFNDSSQEEHQAF [STRL33 segment 9-26]
radioactive counts recorded in twenty minutes [1]: 8579.5 counts | radioactive counts recorded in twenty minutes [2]: 8909.5 counts | Binding Results For Window Length (counts bound-background), 9 (background subtracted): 701 counts | Binding Results For Window Length (counts bound-background), 12 (background subtracted): 573 counts | Binding Results For Window Length (counts bound-background), 15 (background subtracted): 595 counts | Binding Results For Window Length (counts bound-background), 18 (background subtracted): 440 counts

DYHEDYGFSSFNDSSQEE [STRL33 segment 5-22]
radioactive counts recorded in twenty minutes [1]: 3357.5 counts | radioactive counts recorded in twenty minutes [2]: 3689.5 counts | Binding Results For Window Length (counts bound-background), 9 (background subtracted): 851 counts | Binding Results For Window Length (counts bound-background), 12 (background subtracted): 1554 counts | Binding Results For Window Length (counts bound-background), 15 (background subtracted): 1240 counts | Binding Results For Window Length (counts bound-background), 18 (background subtracted): 1191 counts

EAISTVVLATQMTLGFFL [STRL33 segment 185-202]
radioactive counts recorded in twenty minutes [1]: 3973.5 counts | radioactive counts recorded in twenty minutes [2]: 3745.5 counts

EAVQLLVFGLTANSD
COUNTS of radiolabeled gp120 retained [5]: 14220 counts and 13213 counts

EDQKEEVQL
COUNTS of radiolabeled gp120 retained [3]: 564 counts

EDQKEEVQLLVF
COUNTS of radiolabeled gp120 retained [3]: 1379 counts

EDQKEEVQLLVFGLT
COUNTS of radiolabeled gp120 retained [4]: 3633 counts

EDQKEEVQLLVFGLTANS
COUNTS of radiolabeled gp120 retained [4]: 3416 counts

EDSDTYICE
COUNTS of radiolabeled gp120 retained [3]: 650 counts

EDSDTYICEVED
COUNTS of radiolabeled gp120 retained [3]: 956 counts

EDSDTYICEVEDQKE
COUNTS of radiolabeled gp120 retained [4]: 815 counts

EDSDTYICEVEDQKEEVQ
COUNTS of radiolabeled gp120 retained [4]: 788 counts

EDYGFSSFNDSSQEEHQA
Binding Results For Window Length (counts bound-background), 9 (background subtracted): 953 counts | Binding Results For Window Length (counts bound-background), 12 (background subtracted): 817 counts | Binding Results For Window Length (counts bound-background), 15 (background subtracted): 1152 counts | Binding Results For Window Length (counts bound-background), 18 (background subtracted): 548 counts

EEAQLLVFGLTANSD
COUNTS of radiolabeled gp120 retained [5]: 18124 counts and 16296 counts

EEHQAFLQFSKV
Binding Results For Window Length (counts bound-background), 9 (background subtracted): 6060 counts | Binding Results For Window Length (counts bound-background), 12 (background subtracted): 5598 counts

EEHQAFLQFSKVFLPCMY [STRL33 segment 21-38]
radioactive counts recorded in twenty minutes [1]: 2316.5 counts | radioactive counts recorded in twenty minutes [2]: 1819.5 counts

EEVALLVFGLTANSD
COUNTS of radiolabeled gp120 retained [5]: 10890 counts and 13415 counts

EEVQALVFGLTANSD
COUNTS of radiolabeled gp120 retained [5]: 11258 counts and 12603 counts

EEVQLAVFGLTANSD
COUNTS of radiolabeled gp120 retained [5]: 11954 counts and 13690 counts

EEVQLLAFGLTANSD
COUNTS of radiolabeled gp120 retained [5]: 13317 counts and 16286 counts

EEVQLLVAGLTANSD
COUNTS of radiolabeled gp120 retained [5]: 9573 counts and 11480 counts

EEVQLLVFALTANSD
COUNTS of radiolabeled gp120 retained [5]: 19348 counts and 18254 counts

EEVQLLVFG
COUNTS of radiolabeled gp120 retained [3]: 3170 counts

EEVQLLVFGATANSD
COUNTS of radiolabeled gp120 retained [5]: 19978 counts and 10408 counts

EEVQLLVFGLAANSD
COUNTS of radiolabeled gp120 retained [5]: 18863 counts and 19973 counts

EEVQLLVFGLTA
COUNTS of radiolabeled gp120 retained [3]: 3261 counts

EEVQLLVFGLTAASD
COUNTS of radiolabeled gp120 retained [5]: 19200 counts and 19390 counts

EEVQLLVFGLTANAD
COUNTS of radiolabeled gp120 retained [5]: 17928 counts and 17684 counts

EEVQLLVFGLTANSA
COUNTS of radiolabeled gp120 retained [5]: 22206 counts and 18227 counts

EEVQLLVFGLTANSD
COUNTS of radiolabeled gp120 retained [4]: 6423 counts | COUNTS of radiolabeled gp120 retained [5]: 18721 counts and 18582 counts and 19738 counts and 21338 counts | COUNTS of radiolabeled gp120 retained (Panel G, alanine replacements and serial truncations (Z) of CD4 polypeptides, empty control 580): 18040 counts and 23357 counts

EEVQLLVFGLTANSDTHL
COUNTS of radiolabeled gp120 retained [4]: 783 counts

EEVQLLVFGLTTNSD
COUNTS of radiolabeled gp120 retained [5]: 20021 counts and 20100 counts

EFKIDIVVL
COUNTS of radiolabeled gp120 retained [6]: 665 counts

EFKIDIVVLAFQ
COUNTS of radiolabeled gp120 retained [6]: 659 counts

EFKIDIVVLAFQKAS
COUNTS of radiolabeled gp120 retained [7]: 1188 counts

EFKIDIVVLAFQKASSIV
COUNTS of radiolabeled gp120 retained [7]: 799 counts

EFKIDIVVLAFQKASSIVYKK
COUNTS of radiolabeled gp120 retained [8]: 649 counts

EFSFPLAFT
COUNTS of radiolabeled gp120 retained [6]: 658 counts

EFSFPLAFTVEK
COUNTS of radiolabeled gp120 retained [6]: 585 counts

EFSFPLAFTVEKLTG
COUNTS of radiolabeled gp120 retained [7]: 920 counts

EFSFPLAFTVEKLTGSGE
COUNTS of radiolabeled gp120 retained [7]: 668 counts

EFSFPLAFTVEKLTGSGELWW
COUNTS of radiolabeled gp120 retained [8]: 681 counts

EGEQVEFSF
COUNTS of radiolabeled gp120 retained [6]: 735 counts

EGEQVEFSFPLA
COUNTS of radiolabeled gp120 retained [6]: 1456 counts

EGEQVEFSFPLAFTV
COUNTS of radiolabeled gp120 retained [7]: 3270 counts

EGEQVEFSFPLAFTVEKL
COUNTS of radiolabeled gp120 retained [7]: 2164 counts

EGEQVEFSFPLAFTVEKLTGS
COUNTS of radiolabeled gp120 retained [8]: 739 counts

EHDYHEDYGFSSFNDSSQ
Binding Results For Window Length (counts bound-background), 9 (background subtracted): 509 counts | Binding Results For Window Length (counts bound-background), 12 (background subtracted): 937 counts | Binding Results For Window Length (counts bound-background), 15 (background subtracted): 2235 counts | Binding Results For Window Length (counts bound-background), 18 (background subtracted): 1219 counts

EHQAFLQFS
Binding Results For Window Length (counts bound-background), 9 (background subtracted): 7505 counts

EKKTCQCPHRFQKTCSPI
number of radioactive decays (counts) counted: 2006 counts

EKLTGSGEL
COUNTS of radiolabeled gp120 retained [6]: 541 counts

EKLTGSGELWWQ
COUNTS of radiolabeled gp120 retained [6]: 543 counts

EKLTGSGELWWQAER
COUNTS of radiolabeled gp120 retained [7]: 683 counts

EKVVYVGVWIPALLLTIP [CXCR4 segment 153-170]
radioactive counts recorded in twenty minutes [9]: 147 counts | radioactive counts recorded in twenty minutes [10]: 559 counts

ENTVHKWISITEALAFFH [CXCR4 segment 277-294]
radioactive counts recorded in twenty minutes [9]: 315 counts | radioactive counts recorded in twenty minutes [10]: 727 counts

EQVEFSFPL
COUNTS of radiolabeled gp120 retained [6]: 1032 counts

EQVEFSFPLAFT
COUNTS of radiolabeled gp120 retained [6]: 1556 counts

EQVEFSFPLAFTVEK
COUNTS of radiolabeled gp120 retained [7]: 4135 counts

EQVEFSFPLAFTVEKLTG
COUNTS of radiolabeled gp120 retained [7]: 798 counts

EQVEFSFPLAFTVEKLTGSGE
COUNTS of radiolabeled gp120 retained [8]: 765 counts

ERASSVYTRSTGEQEISV [CCR5 segment 333-]
Counts per 20′ Average-background (background subtracted): 84 counts per 20′

ESNIKVLPTWSTPVQPMALIV [human CD4 381-401]
number of radioactive decays (counts) counted: 1992 counts

EVEDQKEEV
COUNTS of radiolabeled gp120 retained [3]: 587 counts

EVEDQKEEVQLL
COUNTS of radiolabeled gp120 retained [3]: 508 counts

EVEDQKEEVQLLVFG
COUNTS of radiolabeled gp120 retained [4]: 2805 counts

EVEDQKEEVQLLVFGLTA
COUNTS of radiolabeled gp120 retained [4]: 3647 counts

EVNLVVMRATQLQKNLTCEVW [human CD4 311-331]
number of radioactive decays (counts) counted: 2183 counts

EVQLLVFGL
COUNTS of radiolabeled gp120 retained [3]: 2146 counts

EVQLLVFGLTAN
COUNTS of radiolabeled gp120 retained [3]: 1838 counts

EVQLLVFGLTANSDT
COUNTS of radiolabeled gp120 retained [4]: 2689 counts

EVQLLVFGLTANSDTHLL
COUNTS of radiolabeled gp120 retained [4]: 667 counts

FACWLPYYIGISIDSFIL [CXCR4 segment 249-266]
radioactive counts recorded in twenty minutes [9]: 202 counts | radioactive counts recorded in twenty minutes [10]: 614 counts

FFIILLTIDRYLAVVHAV [CCR5 segment 117-]
Counts per 20′ Average-background (background subtracted): 77 counts per 20′

FGLTANSDT
COUNTS of radiolabeled gp120 retained [3]: 563 counts

From patent US20030068615A1, “Polypeptides that bind HIV gp120 and related nucleic acids, antibodies, compositions, and methods of use” (priority 1999, published 2003)
